Data as given in patent US20210122730A1, “GLUCOCORTICOID RECEPTOR MODULATORS” (ORIC Pharmaceuticals, Inc., priority 2017, published 2021).

Key:
[1] = biological target: T1, GR (Homo sapiens, UniProt P04150); assay: In Vitro GR Luciferase Reporter Assay (antagonist mode, CHO-K1-GR-MMTV-Luc reporter cells); format: cell-based; settings: antagonist mode, 10 nM Dexamethasone
T1 construct: expressed in transfected cells; host or cells: CHO-K1
T1 sequence (P04150 1-777): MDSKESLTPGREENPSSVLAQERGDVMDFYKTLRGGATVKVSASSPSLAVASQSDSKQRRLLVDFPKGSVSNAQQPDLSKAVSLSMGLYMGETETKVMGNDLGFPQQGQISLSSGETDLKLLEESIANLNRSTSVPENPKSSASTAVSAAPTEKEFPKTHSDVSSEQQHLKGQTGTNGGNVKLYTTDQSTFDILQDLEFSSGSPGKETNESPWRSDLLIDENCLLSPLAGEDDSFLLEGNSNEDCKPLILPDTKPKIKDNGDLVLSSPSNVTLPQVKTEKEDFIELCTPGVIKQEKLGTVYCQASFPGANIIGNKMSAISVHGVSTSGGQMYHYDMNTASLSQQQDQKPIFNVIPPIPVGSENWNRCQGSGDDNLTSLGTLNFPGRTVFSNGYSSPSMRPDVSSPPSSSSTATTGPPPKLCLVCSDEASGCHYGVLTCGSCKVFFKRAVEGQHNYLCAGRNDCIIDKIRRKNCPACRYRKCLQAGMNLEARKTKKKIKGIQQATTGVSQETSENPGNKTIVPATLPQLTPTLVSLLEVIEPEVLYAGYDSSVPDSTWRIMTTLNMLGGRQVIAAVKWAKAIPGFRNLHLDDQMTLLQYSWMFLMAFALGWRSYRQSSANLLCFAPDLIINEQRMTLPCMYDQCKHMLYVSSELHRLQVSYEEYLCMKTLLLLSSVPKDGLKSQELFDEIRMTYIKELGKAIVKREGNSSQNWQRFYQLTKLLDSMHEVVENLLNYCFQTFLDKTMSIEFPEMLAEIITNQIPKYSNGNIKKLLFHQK
Method in brief: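 CHO-K1-GR-MMTV-Luc cells in phenol red-free DMEM with 10% CSS, stimulated with 10 nM dexamethasone (final) and treated with 8-point 1:5 compound dilutions for about 18-24 h at 37° C. Luciferase measured by OneGlo luminescence; IC50 derived for inhibition of GR activity.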

[2] = biological target: T2, CYP2C8 (Homo sapiens, UniProt P10632); assay: CYP Inhibition Assay (CYP2C8, human liver microsomes, paclitaxel substrate); format: in vitro ADME; settings: pH 7.4; pooled human liver microsomes 0.1 mg/mL, probe substrate paclitaxel
T2 construct: Pooled human microsomes were obtained from Sekisui XenoTech, KS; tissue Sekisui XenoTech, KS; host or cells: pooled human liver microsomes
T2 sequence (P10632 1-490): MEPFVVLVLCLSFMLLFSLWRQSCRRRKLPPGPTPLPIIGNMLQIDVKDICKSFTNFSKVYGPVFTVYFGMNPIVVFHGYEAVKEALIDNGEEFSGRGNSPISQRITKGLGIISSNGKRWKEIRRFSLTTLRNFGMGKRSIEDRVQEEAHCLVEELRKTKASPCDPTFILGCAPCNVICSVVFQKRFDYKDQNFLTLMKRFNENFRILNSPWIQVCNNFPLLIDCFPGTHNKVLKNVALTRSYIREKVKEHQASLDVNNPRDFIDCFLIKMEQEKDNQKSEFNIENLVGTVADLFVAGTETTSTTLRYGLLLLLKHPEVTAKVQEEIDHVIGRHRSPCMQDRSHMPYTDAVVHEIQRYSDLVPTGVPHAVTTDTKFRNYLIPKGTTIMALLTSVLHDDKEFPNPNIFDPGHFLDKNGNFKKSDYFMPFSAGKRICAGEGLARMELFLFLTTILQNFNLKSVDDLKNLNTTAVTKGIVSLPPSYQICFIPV
Protocol: Example B: CYP Inhibition Assay
Objective: To assess the % inhibition of test compounds against CYP2C8 enzyme in human liver microsomes.
Pooled human microsomes were obtained from Sekisui XenoTech, KS, and were used for in vitro assessment of compound inhibitory potential of the major drug metabolizing human CYP enzymes.
Test compounds were dissolved in DMSO as 10 mM stock solutions and diluted to 200 µM in acetonitrile as working solutions. The total concentrations of DMSO and acetonitrile were 0.02% and 0.5%, respectively, in the assay.
The assay was performed in duplicate in a 96-well plate. The reaction mixture ([…]) containing a final concentration of 0.1 mg/mL pooled human liver microsomes, 50 mM potassium phosphate, pH 7.4 buffer, was re-warmed at 37° C. for 5 minutes. The reaction was initiated with NADPH solution which was at 1 mM final concentration, and carried out for 5 minutes at 37° C. It was terminated by the addition of 3-fold volume of quench solution (1:1 acetonitrile:methanol with 0.1% formic acid and the internal standard of tolbutamide). The sample was vortexed, centrifuged at 4,000 rpm for 15 min at 4° C. The incubation in the presence of vehicle (0.02% DMSO and 0.5% acetonitrile) was used as the enzyme activity control. The analyses of metabolite 6α-hydroxypaclitaxel in supernatant was performed with LC-MS/MS method (Sciex API 4500 Qtrap coupled to a Shimadzu LC-20AD HPLC).
The CYP enzyme activity was determined based on the formation of 6a-hydroxypaclitaxel metabolite. The % inhibition was calculated using this equation: % Inhibition=100×(1−Ainactivator/Avehicle), where Ainactivator is the CYP enzyme activity in the presence of test compound, and Avehicle is the CYP activity in the presence of vehicle.

Row | SMILES | IC50 [1] [nM] | inhibition at 5 min [2] [%]
1 | CN([C@H]1CCC2=Cc3c(cnn3-c3ccc(F)cc3)C[C@]2(C(=O)c2cc(C(F)(F)F)ccn2)C1)S(=O)(=O)c1ccnn1C [Example 156, N-((4aS,6S)-1-(4-fluorophenyl)-4a-(4-(trifluoromethyl)picolinoyl)-4,4a,5,6,7,8-hexahydro-1H-benzo[f]indazol-6-yl)-N,1-dimethyl-1H-pyrazole-5-sulfonamide] | ≤ 100 | 75 to 90
2 | Cn1ccc(S(=O)(=O)N(C2CC2)[C@H]2CCC3=Cc4c(cnn4-c4ccc(F)cc4)C[C@]3(C(=O)c3ncc(C4CC4)s3)C2)n1 [Example 160, N-cyclopropyl-N-((4aS,6S)-4a-(5-cyclopropylthiazole-2-carbonyl)-1-(4-fluorophenyl)-4,4a,5,6,7,8-hexahydro-1H-benzo[f]indazol-6-yl)-1-methyl-1H-pyrazole-3-sulfonamide] | ≤ 100 | 50 to 75
3 | Cn1ccc(S(=O)(=O)N(C2CC2)[C@H]2CCC3=Cc4c(cnn4-c4ccc(F)cc4)C[C@]3(C(=O)c3ncc(C(F)(F)F)s3)C2)n1 [Example 164, N-cyclopropyl-N-((4aS,6S)-1-(4-fluorophenyl)-4a-(5 (trifluoromethyl)thiazole-2-carbonyl)-4,4a,5,6,7,8-hexahydro-1H-benzo[f]indazol-6-yl)-1-methyl-1H-pyrazole-3-sulfonamide] | ≤ 100 | 50 to 75
4 | CCN([C@H]1CCC2=Cc3c(cnn3-c3ccc(F)cc3)C[C@]2(C(=O)c2cc(C(F)(F)F)ccn2)C1)S(=O)(=O)c1cnn(C(F)F)c1 [Example 166, 1-(difluoromethyl)-N-ethyl-N-((4aS,6S)-1-(4-fluorophenyl)-4a-(4-(trifluoromethyl)picolinoyl)-4,4a,5,6,7,8-hexahydro-1H-benzo[f]indazol-6-yl)-1H-pyrazole-4-sulfonamide] | ≤ 100 | 25 to 50
5 | CN([C@H]1CCC2=Cc3c(cnn3-c3ccc(F)cc3)C[C@]2(C(=O)c2cc(C(F)(F)F)ccn2)C1)S(=O)(=O)c1cn(C)nn1 [Example 170, N-((4aS,6S)-1-(4-fluorophenyl)-4a-(4-(trifluoromethyl)picolinoyl)-4,4a,5,6,7,8-hexahydro-1H-benzo[f]indazol-6-yl)-N,1-dimethyl-1H-1,2,3-triazole-4-sulfonamide] | ≤ 100 | ≤ 25
6 | Cn1cc(S(=O)(=O)N(C2CC2)[C@H]2CCC3=Cc4c(cnn4-c4ccc(F)cc4)C[C@]3(C(=O)c3ncc(C(F)(F)F)s3)C2)cn1 [Example 176, N-cyclopropyl-N-((4aS,6S)-1-(4-fluorophenyl)-4a-(5 (trifluoromethyl)thiazole-2-carbonyl)-4,4a,5,6,7,8-hexahydro-1H-benzo[f]indazol-6-yl)-1-methyl-1H-pyrazole-4-sulfonamide] | ≤ 100 | 25 to 50

Now from value to compound:

Row | IC50 [1] [nM] | inhibition at 5 min [2] [%] | SMILES
7 | ≤ 100 | 25 to 50 | Cn1ccc(S(=O)(=O)N(CC2CC2)[C@H]2CCC3=Cc4c(cnn4-c4ccc(F)cc4)C[C@]3(C(=O)c3cc(C(F)(F)F)ccn3)C2)n1 [Example 178, N-(cyclopropylmethyl)-N-((4aS,6S)-1-(4-fluorophenyl)-4a-(4-(trifluoromethyl)picolinoyl)-4,4a,5,6,7,8-hexahydro-1H-benzo[f]indazol-6-yl)-1-methyl-1H-pyrazole-3-sulfonamide]
8 | ≤ 100 | 50 to 75 | CC(C)N([C@H]1CCC2=Cc3c(cnn3-c3ccc(F)cc3)C[C@]2(C(=O)c2ncc(C(F)(F)F)s2)C1)S(=O)(=O)c1ccn(C)n1 [Example 182, N-((4aS,6S)-1-(4-fluorophenyl)-4a-(5-(trifluoromethyl)thiazole-2-carbonyl)-4,4a,5,6,7,8-hexahydro-1H-benzo[f]indazol-6-yl)-N-isopropyl-1-methyl-1H-pyrazole-3-sulfonamide]
9 | ≤ 100 | 25 to 50 | Cn1ncc(S(=O)(=O)N(C2CC2)[C@H]2CCC3=Cc4c(cnn4-c4ccc(F)cc4)C[C@]3(C(=O)c3ncc(C(F)(F)F)s3)C2)n1 [Example 183, N-cyclopropyl-N-((4aS,6S)-1-(4-fluorophenyl)-4a-(5 (trifluoromethyl)thiazole-2-carbonyl)-4,4a,5,6,7,8-hexahydro-1H-benzo[f]indazol-6-yl)-2-methyl-2H-1,2,3-triazole-4-sulfonamide]
10 | ≤ 100 | 25 to 50 | Cn1ccc(S(=O)(=O)N(CC(F)(F)F)[C@H]2CCC3=Cc4c(cnn4-c4ccc(F)cc4)C[C@]3(C(=O)c3ncc(C(F)(F)F)s3)C2)n1 [Example 184, N-((4aS,6S)-1-(4-fluorophenyl)-4a-(5-(trifluoromethyl)thiazole-2-carbonyl)-4,4a,5,6,7,8-hexahydro-1H-benzo[f]indazol-6-yl)-1-methyl-N-(2,2,2-trifluoroethyl)-1H-pyrazole-3-sulfonamide]
11 | ≤ 100 | 50 to 75 | Cn1ccc(S(=O)(=O)N(CC(C)(C)O)[C@H]2CCC3=Cc4c(cnn4-c4ccc(F)cc4)C[C@]3(C(=O)c3ncc(C(F)(F)F)s3)C2)n1 [Example 189, N-((4aS,6S)-1-(4-fluorophenyl)-4a-(5-(trifluoromethyl)thiazole-2-carbonyl)-4,4a,5,6,7,8-hexahydro-1H-benzo[f]indazol-6-yl)-N-(2-hydroxy-2-methylpropyl)-1-methyl-1H-pyrazole-3-sulfonamide]
12 | ≤ 100 | 25 to 50 | CC(C)N([C@H]1CCC2=Cc3c(cnn3-c3ccc(F)cc3)C[C@]2(C(=O)c2ncc(C(F)(F)F)s2)C1)S(=O)(=O)c1cnn(C)c1 [Example 191, N-((4aS,6S)-1-(4-fluorophenyl)-4a-(5-(trifluoromethyl)thiazole-2-carbonyl)-4,4a,5,6,7,8-hexahydro-1H-benzo[f]indazol-6-yl)-N-isopropyl-1-methyl-1H-pyrazole-4-sulfonamide]
13 | ≤ 100 | 50 to 75 | CC(C)N([C@H]1CCC2=Cc3c(cnn3-c3ccc(F)cc3)C[C@]2(C(=O)c2cc(C(F)(F)F)ccn2)C1)S(=O)(=O)c1cnn(C)c1 [Example 193, N-((4aS,6S)-1-(4-fluorophenyl)-4a-(4-(trifluoromethyl)picolinoyl)-4,4a,5,6,7,8-hexahydro-1H-benzo[f]indazol-6-yl)-N-isopropyl-1-methyl-1H-pyrazole-4-sulfonamide]
14 | ≤ 100 | 50 to 75 | Cn1ncc(S(=O)(=O)N(CC2CC2)[C@H]2CCC3=Cc4c(cnn4-c4ccc(F)cc4)C[C@]3(C(=O)c3ncc(C(F)(F)F)s3)C2)n1 [Example 194, N-(cyclopropylmethyl)-N-((4aS,6S)-1-(4-fluorophenyl)-4a-(5-(trifluoromethyl)thiazole-2-carbonyl)-4,4a,5,6,7,8-hexahydro-1H-benzo[f]indazol-6-yl)-2-methyl-2H-1,2,3-triazole-4-sulfonamide]
